# According to US20200354426A1 (MEDIMMUNE LIMITED, priority 2016, published 2020):
# Marks after values point to notes of the source that are not given here. Numbered stars: 1 amine (or outer) side, 2 acyl side, 3 side chain; on linkers, the order of the positions; unused ones are H or OH. Side chains are listed from the residue outwards. Peptide text beside a SMILES is read from it. * marks the point of attachment. γGlu = O=C(O)[C@H](CCC(=O)[*:2])N[*:1]; Palmitoyl = CCCCCCCCCCCCCCCC(=O)*
# Assays:
# [1] = Stability testing of peptides in plasma; type: in vitro ADME, mouse
# Method: The stability in plasma of the peptideS […], […], […] and […] was determined as follows. […] The spiked plasma samples were gently mixed and allowed to equilibrate for about 5 minutes before start of experiment. The plasma samples were incubated for 48 hours in a GalaxyR CO2 incubator at 37° C. […] The samples were stored at -70° C. until analysis. Plasma samples were assayed as follows. […] After mixing and centrifugation, 100 μl the supernatant was transferred to a new plate and 1 μl was injected onto an analytical column. The analysis was performed using a μLC-system ([…]) coupled to a medium high resolution mass spectrometer (Perkin Elmer PenTOF) with positive electrospray ionisation. […] Flow: 0.1 ml/min using a slow reversed phase gradient. […] Cleavage products arise from the action of the protease DPP IV in plasma. Both the degradation of the peptides and formation of peptide products were reported in percentage of the initial peptide concentration. Peaks were integrated and % remaining peptide was calculated: […] Levels of deamidation and DPP IV cleavage were low for […] and […].
# [2] = test system: diet induced obesity (DIO) mouse model; experiment: Diet induced obesity (DIO) mouse model, study A; type: in vivo; settings: for BeHy / FGF21 / HOMA / Hepatic TG / Plasma Cholesterol / Plasma NEFA / Plasma TG: day 14; for Glucose / Insulin: day 14, 4-hour fasting
# Excerpt: Female C57/B16JHsdOla (obtained from Harlan Laboratories. UK) were started on a high fat diet of D12492 (Research Diets, NJ, USA) and a chocolate confection, delicato ball (Delicata Bakverk, Sweden) at 9-11 weeks of age, and were maintained on the diet for 16 weeks prior to arrival to the animal facility, during a three week acclimation period and during drug treatment, caloric content of the two components of the diet is shown in Table 11. The mice were divided into 9 groups (n=5-6), and treatment was started at 29 weeks of age.
# The body weight of the animals was monitored daily throughout the dosing period. At day 14, blood samples for the measurement of plasma glucose and insulin from conscious mice were obtained after a 4-hour fasting period. Mice were then anaesthetized using isoflurane and terminal blood was collected from the capillary bed behind the eye. The following parameters were measured: blood chemistry measurements of triglycerides, total cholesterol, non-esterified fatty acids (NEFA), beta-hydroxybutyrate and fibroblast growth factor 21 (FGF21) (Tables 14 and 15 below).
# [3] = test system: healthy volunteers; experiment: Phase 1 single-ascending-dose study of G933 (PK, PD, immunogenicity, safety); type: in vivo, human; settings: for Overall daily food intake compared with placebo: across breakfast, lunch and dinner; for Median glucose peak after breakfast: approximately 1 hour post breakfast, 3.5 hours post dose; for Median glucose peak after dinner: approximately 1 hour post dinner, […] post dose; for Median glucose peak after lunch: approximately 1 hour post lunch, 7 hours post dose
# Excerpt: The subjects were screened for the following inclusion and exclusion criteria.
# Inclusion Criteria: • Healthy volunteers, ages 18 through 45 years at the time of screening; • Body mass index ≥22 and ≤30 kg/m^2 and body weight ≥70 kg; and • Venous access suitable for multiple cannulations.
# The period of exclusion to begin 30 days or 5 half-lives of investigational product after the final dose, or after the last visit, whichever is longest. Subjects consented and screened, but not randomized into this study or a previous study, are not excluded; or • Psychiatric illness such that subjects have been committed to an institution by way of official or judicial order
# Eight subjects per cohort were planned.
compound,measurement,setting,value
CCCCCCCCCCCCCCCC(=O)N[C@@H](CCC(=O)NCCCC[C@H](NC(=O)[C@H](CCCCN)NC(=O)[C@H](CO)NC(=O)[C@H](Cc1ccc(O)cc1)NC(=O)[C@H](CC(=O)O)NC(=O)[C@H](CO)NC(=O)[C@@H](NC(=O)[C@H](Cc1ccccc1)NC(=O)[C@@H](NC(=O)CNC(=O)[C@H](CCC(N)=O)NC(=O)[C@H](CO)NC(=O)[C@@H](N)Cc1c[nH]cn1)[C@@H](C)O)[C@@H](C)O)C(=O)N[C@@H](CC(C)C)C(=O)N[C@@H](CC(=O)O)C(=O)N[C@@H](CO)C(=O)N[C@@H](CCC(=O)O)C(=O)N[C@@H](CCCNC(=N)N)C(=O)N[C@@H](C)C(=O)N[C@@H](CCCNC(=N)N)C(=O)N[C@@H](CC(=O)O)C(=O)N[C@@H](Cc1ccccc1)C(=O)N[C@H](C(=O)N[C@@H](C)C(=O)N[C@@H](Cc1c[nH]c2ccccc12)C(=O)N[C@@H](CC(C)C)C(=O)N[C@H](C(=O)N[C@@H](C)C(=O)NCC(=O)NCC(N)=O)C(C)C)C(C)C)C(=O)O [Peptide G730] (H-HSQGTFTSDYSKK([γGlu-Palmitoyl])LDSERARDFVAWLVAGG-NH2; N-terminus assumed),% +1 DPP cleaved product,[1],5%
same,% +1 prod,[1],15%
same,% DPP cleaved product,[1],14%
same,"remaining at 24 h, 2 μmol/L","[1]; mouse plasma, 37° C., 24 h, read-out: % stable peptide",65%
same,BW day 14 (% change of vehicle mean),[2]; 10 nmol/kg sc twice daily 14 days,−7.5%
same,BeHy,[2]; 10 nmol/kg sc twice daily,428 µmol/L
same,FGF21,[2]; 10 nmol/kg sc twice daily,1963 pg/mL
same,HOMA,[2]; 10 nmol/kg sc twice daily,3.3
same,Hepatic TG,[2]; 10 nmol/kg sc twice daily,9.0 * g TB/100 g tissue
same,Plasma Cholesterol,[2]; 10 nmol/kg sc twice daily,3.10 mM
same,Plasma NEFA,[2]; 10 nmol/kg sc twice daily,0.28 Mm
same,Plasma TG,[2]; 10 nmol/kg sc twice daily,0.21 mM
same,Glucose,[2]; 10 nmol/kg sc twice daily,7.2 mM
same,Insulin,[2]; 10 nmol/kg sc twice daily,0.4 nM
same,BW day 14 (% change of vehicle mean),[2]; 20 nmol/kg sc twice daily 14 days,−15.6%
same,BeHy,[2]; 20 nmol/kg sc twice daily,750 µmol/L
same,FGF21,[2]; 20 nmol/kg sc twice daily,2236 pg/mL
same,HOMA,[2]; 20 nmol/kg sc twice daily,1.7
same,Hepatic TG,[2]; 20 nmol/kg sc twice daily,17.7 g TB/100 g tissue
same,Plasma Cholesterol,[2]; 20 nmol/kg sc twice daily,2.46 mM
same,Plasma NEFA,[2]; 20 nmol/kg sc twice daily,0.25 Mm
same,Plasma TG,[2]; 20 nmol/kg sc twice daily,0.20 mM
same,Glucose,[2]; 20 nmol/kg sc twice daily,6.7 mM
same,Insulin,[2]; 20 nmol/kg sc twice daily,0.2 nM
same,BeHy,[2]; 50 nmol/kg sc twice daily,1477 µmol/L
same,FGF21,[2]; 50 nmol/kg sc twice daily,5294 pg/mL
same,HOMA,[2]; 50 nmol/kg sc twice daily,2.1
same,Hepatic TG,[2]; 50 nmol/kg sc twice daily,28.1 g TB/100 g tissue
same,Plasma Cholesterol,[2]; 50 nmol/kg sc twice daily,2.19 mM
same,Plasma NEFA,[2]; 50 nmol/kg sc twice daily,0.32 Mm
same,Plasma TG,[2]; 50 nmol/kg sc twice daily,0.23 mM
same,Glucose,[2]; 50 nmol/kg sc twice daily,5.9 mM
same,Insulin,[2]; 50 nmol/kg sc twice daily,0.3 nM
same,body weight over the 14 day dosing period,"[2]; DIO mice, FIGS. 1-4",dose dependent and continuous weight loss
L-Histidyl-L-seryl-L-glutaminylglycyl-L-threonyl-L-phenylalanyl-L-threonyl-L-seryl-L-alpha-aspartyl-(N6-[N-(1-oxohexadecyl)-L-gamma-gutamyl])L-lysy-L-sery-L-alpha-glutamyl-L-tyrosyl-L-leucyl-L-alpha-aspartyl-L-seryl-L-alpha-glutamyl-L-arginyl-L-alanyl-L-arginyl-L-alpha-L-aspartyl-L-phenylalanyl-L-valyl-L-alanyl-L-tryptophyl-L-leucyl-L-alpha-glutamyl-L-alanylglycylglycine [Peptide G933],Overall daily food intake compared with placebo,[3]; Dose (µg) 5,100%
same,Median glucose peak after breakfast,[3]; Dose (µg) 5,6.2 mmol/L
same,Median glucose peak after dinner,[3]; Dose (µg) 5,7.0 mmol/L
same,Median glucose peak after lunch,[3]; Dose (µg) 5,4.9 mmol/L
same,Overall daily food intake compared with placebo,[3]; Dose (µg) 10,100%
same,Median glucose peak after breakfast,[3]; Dose (µg) 10,5.8 mmol/L
same,Median glucose peak after dinner,[3]; Dose (µg) 10,6.0 mmol/L
same,Median glucose peak after lunch,[3]; Dose (µg) 10,5.1 mmol/L
same,Overall daily food intake compared with placebo,[3]; Dose (µg) 30,96%
same,Median glucose peak after breakfast,[3]; Dose (µg) 30,5.4 mmol/L
same,Median glucose peak after dinner,[3]; Dose (µg) 30,5.2 mmol/L
same,Median glucose peak after lunch,[3]; Dose (µg) 30,4.4 mmol/L
same,Overall daily food intake compared with placebo,[3]; Dose (µg) 100,82%
same,Median glucose peak after breakfast,[3]; Dose (µg) 100,5.5 mmol/L
same,Median glucose peak after dinner,[3]; Dose (µg) 100,5.2 mmol/L
same,Median glucose peak after lunch,[3]; Dose (µg) 100,4.7 mmol/L
same,Overall daily food intake compared with placebo,[3]; Dose (µg) 150,60%
same,Median glucose peak after breakfast,[3]; Dose (µg) 150,5.1 mmol/L
same,Median glucose peak after dinner,[3]; Dose (µg) 150,5.2 mmol/L
same,Median glucose peak after lunch,[3]; Dose (µg) 150,5.1 mmol/L
same,Overall daily food intake compared with placebo,[3]; Dose (µg) 300,23%
same,Median glucose peak after breakfast,[3]; Dose (µg) 300,4.7 mmol/L
same,Median glucose peak after dinner,[3]; Dose (µg) 300,4.9 mmol/L
same,Median glucose peak after lunch,[3]; Dose (µg) 300,5.1 mmol/L
same,overall daily food intake,[3]; all single doses compared with placebo,reduction in overall daily food intake
same,plasma glucose levels,"[3]; all single doses, 2.5-14 hours post-dose",glucose lowering effect
